Results taken from patent US6441195B1, “Substituted sulphonylamino(thio) carbonyl compounds” (Bayer Aktiengesellschaft, priority 1995, dated 2002).

What was measured:
Format in all cases: in vivo
weeds [1] = assay: Pre-emergence test (greenhouse), activity against weeds; conditions: in words
In short: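 Three weeks after treatment, % damage relative to untreated plants is scored, 0% meaning no effect. Seeds in normal soil received, roughly one day post-sowing, an aqueous dilution of an acetone/emulsifier concentrate, with the rate per unit area, not concentration, being the relevant dose.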

weeds [2] = assay: Post-emergence test (greenhouse), activity against weeds; conditions: in words
Method: (§1) Solvent: 5 parts by weight of acetone
(§2) Emulsifier: 1 part by weight of alkylaryl polyglycol ether
(§3) To produce a suitable preparation of active compound, 1 part by weight of active compound is mixed with the stated amount of solvent, the stated amount of emulsifier is added and the concentrate is diluted with water to the desired concentration.
(§4) Test plants which have a height of 5-15 cm are sprayed with the preparation of the active compound in such a way as to apply the particular amounts of active compound desired per unit area. The concentration of the spray liquor is chosen so that the particular amounts of active compound desired are applied in 2000 l of water/ha.
(§5) After three weeks, the degree of damage to the plants is rated in % damage in comparison to the development of the untreated control.
(§6) 0%=no action (like untreated control)

Digitaria = assay: Post-emergence test/greenhouse, Digitaria; conditions: greenhouse, after three weeks
Method: as §1, §2, §3, §4, §5, §6

Echinochloa = assay: Post-emergence test/greenhouse, Echinochloa; conditions: greenhouse, after three weeks
Method: as §1, §2, §3, §4, §5, §6

Lolium [3] = assay: Post-emergence test/greenhouse, Lolium; conditions: greenhouse, after three weeks
Method: as §1, §2, §3, §4, §5, §6

Sorghum [4] = assay: Post-emergence test/greenhouse, Sorghum; conditions: greenhouse, after three weeks
Method: as §1, §2, §3, §4, §5, §6

Matricaria [5] = assay: Post-emergence test/greenhouse, Matricaria; conditions: greenhouse, after three weeks
Method: as §1, §2, §3, §4, §5, §6

Stellaria = assay: Post-emergence test/greenhouse, Stellaria; conditions: greenhouse, after three weeks
Method: as §1, §2, §3, §4, §5, §6

Soya beans = assay: Pre-emergence test/Greenhouse, Soya beans; conditions: in vivo
In short: (§7)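 Emulsifier-formulated compound applied by soil watering ~24 h after sowing; damage scored at three weeks as % of untreated control.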

Lolium [6] = assay: Pre-emergence test/Greenhouse, Lolium; conditions: after three weeks
In short: as §7

Poa = assay: Pre-emergence test/Greenhouse, Poa; conditions: after three weeks
In short: as §7

Sorghum [7] = assay: Pre-emergence test/Greenhouse, Sorghum; conditions: after three weeks
In short: as §7

Ambrosia = assay: Pre-emergence test/Greenhouse, Ambrosia; conditions: after three weeks
In short: as §7

Matricaria [8] = assay: Pre-emergence test/Greenhouse, Matricaria; conditions: after three weeks
In short: as §7

Solanum = assay: Pre-emergence test/Greenhouse, Solanum; conditions: after three weeks
In short: as §7

Amaranthus = assay: Post-emergence test/greenhouse, Amaranthus; conditions: greenhouse, after three weeks
Method: as §1, §2, §3, §4, §5, §6

Gallium = assay: Post-emergence test/greenhouse, Gallium; conditions: greenhouse, after three weeks
Method: as §1, §2, §3, §4, §5, §6

Maize = assay: Pre-emergence test/Greenhouse, Maize; conditions: in vivo
In short: as §7

Structure (SMILES)	activity against weeds (weeds [1])	activity against weeds (weeds [2])	degree of damage, Digitaria (Digitaria; 60 g of ai./ha)	degree of damage, Echinochloa (Echinochloa; 60 g of ai./ha)	degree of damage, Lolium (Lolium [3]; 60 g of ai./ha)	degree of damage, Sorghum (Sorghum [4]; 60 g of ai./ha)	degree of damage, Matricaria (Matricaria [5]; 60 g of ai./ha)	degree of damage, Stellaria (Stellaria; 60 g of ai./ha)	degree of damage to the plants (% damage vs untreated control), Soya beans (Soya beans)	degree of damage, Amaranthus (Amaranthus; 60 g of ai./ha)	degree of damage, Gallium (Gallium; 60 g of ai./ha)	degree of damage to the plants (% damage vs untreated control), Maize (Maize)	further results
COC(=O)c1cccc(C)c1S(=O)(=O)NC(=O)n1nc(OC)n(C)c1=O [Example 162]	very strong activity against weeds	very strong activity against weeds	70%	80%	90%	80%	60%	90%	0%				degree of damage to the plants (% damage vs untreated control), Lolium (Lolium [6]; 60 g of ai./ha): 95%; degree of damage to the plants (% damage vs untreated control), Poa (Poa; 60 g of ai./ha): 95%; degree of damage to the plants (% damage vs untreated control), Sorghum (Sorghum [7]; 60 g of ai./ha): 90%; degree of damage to the plants (% damage vs untreated control), Ambrosia (Ambrosia; 60 g of ai./ha): 80%; degree of damage to the plants (% damage vs untreated control), Matricaria (Matricaria [8]; 60 g of ai./ha): 95%; degree of damage to the plants (% damage vs untreated control), Solanum (Solanum; 60 g of ai./ha): 95%
COC(=O)c1cccc(C)c1S(=O)(=O)NC(=O)n1nc(OC(C)C)n(C2CC2)c1=O [Example 166]	very strong activity against weeds	very strong activity against weeds	70%	70%	50%	90%	100%	95%		95%	95%	40%	degree of damage to the plants (% damage vs untreated control), Lolium (Lolium [6]; 15 g of ai./ha): 90%; degree of damage to the plants (% damage vs untreated control), Poa (Poa; 15 g of ai./ha): 90%; degree of damage to the plants (% damage vs untreated control), Sorghum (Sorghum [7]; 15 g of ai./ha): 70%; degree of damage to the plants (% damage vs untreated control), Ambrosia (Ambrosia; 15 g of ai./ha): 80%; degree of damage to the plants (% damage vs untreated control), Matricaria (Matricaria [8]; 15 g of ai./ha): 95%; degree of damage to the plants (% damage vs untreated control), Solanum (Solanum; 15 g of ai./ha): 90%
CCCOc1nn(C(=O)NS(=O)(=O)c2c(C)cccc2C(=O)OC)c(=O)n1C [Example 140]	very strong activity against weeds	very strong activity against weeds							10%				degree of damage, Digitaria (Digitaria; 250 g of ai./ha): 95%; degree of damage, Echinochloa (Echinochloa; 250 g of ai./ha): 90%; degree of damage, Sorghum (Sorghum [4]; 250 g of ai./ha): 95%; degree of damage, Amaranthus (Amaranthus; 250 g of ai./ha): 100%; degree of damage, Gallium (Gallium; 250 g of ai./ha): 95%; degree of damage, Matricaria (Matricaria [5]; 250 g of ai./ha): 90%; degree of damage, Stellaria (Stellaria; 250 g of ai./ha): 70%; degree of damage to the plants (% damage vs untreated control), Poa (Poa; 30 g of ai./ha): 95%; degree of damage to the plants (% damage vs untreated control), Sorghum (Sorghum [7]; 30 g of ai./ha): 95%; degree of damage to the plants (% damage vs untreated control), Ambrosia (Ambrosia; 30 g of ai./ha): 80%; degree of damage to the plants (% damage vs untreated control), Matricaria (Matricaria [8]; 30 g of ai./ha): 80%; degree of damage to the plants (% damage vs untreated control), Solanum (Solanum; 30 g of ai./ha): 95%
CCCOc1nn(C(=O)NS(=O)(=O)c2c(C)cccc2C(=O)OC)c(=O)n1C1CC1 [Example 165]	very strong activity against weeds	very strong activity against weeds	50%	80%	50%	90%	95%	95%	10%	95%	95%	0%	degree of damage to the plants (% damage vs untreated control), Poa (Poa; 8 g of ai./ha): 90%; degree of damage to the plants (% damage vs untreated control), Sorghum (Sorghum [7]; 8 g of ai./ha): 70%; degree of damage to the plants (% damage vs untreated control), Ambrosia (Ambrosia; 8 g of ai./ha): 80%; degree of damage to the plants (% damage vs untreated control), Matricaria (Matricaria [8]; 8 g of ai./ha): 90%; degree of damage to the plants (% damage vs untreated control), Solanum (Solanum; 8 g of ai./ha): 80%
CCSc1nn(C(=O)NS(=O)(=O)c2c(C)cccc2C(=O)OC)c(=O)n1C1CC1 [Example 159]	very strong activity against weeds	very strong activity against weeds	60%	80%	60%	70%	100%	100%		95%	95%	10%	degree of damage to the plants (% damage vs untreated control), Lolium (Lolium [6]; 30 g of ai./ha): 90%; degree of damage to the plants (% damage vs untreated control), Poa (Poa; 30 g of ai./ha): 95%; degree of damage to the plants (% damage vs untreated control), Sorghum (Sorghum [7]; 30 g of ai./ha): 60%; degree of damage to the plants (% damage vs untreated control), Ambrosia (Ambrosia; 30 g of ai./ha): 95%; degree of damage to the plants (% damage vs untreated control), Matricaria (Matricaria [8]; 30 g of ai./ha): 95%; degree of damage to the plants (% damage vs untreated control), Solanum (Solanum; 30 g of ai./ha): 95%
CCOC(=O)c1scc(C)c1S(=O)(=O)NC(=O)n1nc(OCC)n(C2CC2)c1=O [Example 63]	very strong activity against weeds	very strong activity against weeds	50%	90%	70%	80%	95%	100%		100%	90%	10%	degree of damage to the plants (% damage vs untreated control), Lolium (Lolium [6]; 60 g of ai./ha): 100%; degree of damage to the plants (% damage vs untreated control), Poa (Poa; 60 g of ai./ha): 95%; degree of damage to the plants (% damage vs untreated control), Sorghum (Sorghum [7]; 60 g of ai./ha): 80%; degree of damage to the plants (% damage vs untreated control), Ambrosia (Ambrosia; 60 g of ai./ha): 100%; degree of damage to the plants (% damage vs untreated control), Matricaria (Matricaria [8]; 60 g of ai./ha): 100%; degree of damage to the plants (% damage vs untreated control), Solanum (Solanum; 60 g of ai./ha): 100%
CCCOc1nn(C(=O)[N-]S(=O)(=O)c2c(C)cccc2C(=O)OC)c(=O)n1C.[Na+] [Example 144]	very strong activity against weeds	very strong activity against weeds											degree of damage, Digitaria (Digitaria; 250 g of ai./ha): 95%; degree of damage, Echinochloa (Echinochloa; 250 g of ai./ha): 95%; degree of damage, Lolium (Lolium [3]; 250 g of ai./ha): 70%; degree of damage, Sorghum (Sorghum [4]; 250 g of ai./ha): 95%; degree of damage, Amaranthus (Amaranthus; 250 g of ai./ha): 100%; degree of damage, Gallium (Gallium; 250 g of ai./ha): 95%; degree of damage, Matricaria (Matricaria [5]; 250 g of ai./ha): 70%; degree of damage, Stellaria (Stellaria; 250 g of ai./ha): 95%; degree of damage to the plants (% damage vs untreated control), Lolium (Lolium [6]; 125 g of ai./ha): 90%; degree of damage to the plants (% damage vs untreated control), Poa (Poa; 125 g of ai./ha): 90%; degree of damage to the plants (% damage vs untreated control), Sorghum (Sorghum [7]; 125 g of ai./ha): 95%; degree of damage to the plants (% damage vs untreated control), Ambrosia (Ambrosia; 125 g of ai./ha): 80%; degree of damage to the plants (% damage vs untreated control), Matricaria (Matricaria [8]; 125 g of ai./ha): 95%; degree of damage to the plants (% damage vs untreated control), Solanum (Solanum; 125 g of ai./ha): 95%
